Consider one compound from ChEMBL document CHEMBL1201862, “PubChem BioAssay data set” (2004).

The source made the active and inactive calls. Bounds are passed on as bounds.

The target of test [1] is Intestinal-type alkaline phosphatase (Mus musculus, UniProt P24822). The test is described as follows: PubChem AID 488874. The class given is functional.
Test [2] deals with T1, Intestinal-type alkaline phosphatase (Homo sapiens, UniProt P09923). Description: human intestinal alkaline phosphatase activators, dose response, biochemical, luminescence, uHTS hits (AID 463120). The class given is functional.
In test [3] the target is T1, Intestinal-type alkaline phosphatase. Description: activation of human intestinal alkaline phosphatase – biochemical, luminescent, uHTS hits, set 2, dose response (AID 488817).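 Also: potency of activators that raise enzyme activity.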 The format is functional.
The target in test [4] is T2, Alkaline phosphatase, tissue-nonspecific isozyme (Homo sapiens, UniProt P05186).
T2 sequence (P05186 whole entry): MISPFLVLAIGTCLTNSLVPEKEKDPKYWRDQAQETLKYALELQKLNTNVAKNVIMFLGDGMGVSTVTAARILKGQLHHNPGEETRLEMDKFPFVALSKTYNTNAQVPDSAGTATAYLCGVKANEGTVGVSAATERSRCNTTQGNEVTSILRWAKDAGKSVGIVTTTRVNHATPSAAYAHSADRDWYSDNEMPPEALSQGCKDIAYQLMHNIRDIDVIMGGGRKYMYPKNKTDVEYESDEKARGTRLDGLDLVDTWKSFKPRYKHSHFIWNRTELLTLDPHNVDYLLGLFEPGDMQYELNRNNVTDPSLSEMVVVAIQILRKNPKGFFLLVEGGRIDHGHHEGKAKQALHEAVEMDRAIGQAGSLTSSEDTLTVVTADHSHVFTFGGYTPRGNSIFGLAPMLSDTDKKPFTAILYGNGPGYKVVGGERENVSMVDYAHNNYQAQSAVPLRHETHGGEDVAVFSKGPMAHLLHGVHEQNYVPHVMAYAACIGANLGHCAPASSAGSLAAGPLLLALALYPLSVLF
The test is described as follows: activation of tissue-nonspecific alkaline phosphatase – biochemical, TNAP isozyme, human IAP uHTS hits, selectivity assay for human IAP activator project, dose response (AID 488886).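 Also: potency of compounds raising TNAP activity as a selectivity check on IAP activators.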 The class given is functional.

Test [5] relates to H9c2. Description: cells. The class given is functional, cell-based. Particulars: Rattus norvegicus, H9c2, Myocardium.

T1 sequence (P09923 whole entry): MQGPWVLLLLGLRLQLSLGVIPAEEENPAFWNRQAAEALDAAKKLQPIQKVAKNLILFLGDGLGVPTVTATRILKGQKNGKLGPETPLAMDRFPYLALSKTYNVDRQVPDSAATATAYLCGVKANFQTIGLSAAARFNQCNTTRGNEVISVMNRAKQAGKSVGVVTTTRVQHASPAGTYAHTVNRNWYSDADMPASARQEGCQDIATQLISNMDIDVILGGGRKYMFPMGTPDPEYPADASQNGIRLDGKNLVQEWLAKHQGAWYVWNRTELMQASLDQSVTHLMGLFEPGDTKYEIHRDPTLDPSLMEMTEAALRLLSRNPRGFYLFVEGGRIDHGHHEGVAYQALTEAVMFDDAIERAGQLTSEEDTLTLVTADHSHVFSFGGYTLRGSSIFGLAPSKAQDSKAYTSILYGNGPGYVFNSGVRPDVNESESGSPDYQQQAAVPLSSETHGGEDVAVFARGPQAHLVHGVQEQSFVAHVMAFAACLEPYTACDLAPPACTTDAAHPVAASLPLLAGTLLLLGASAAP
Intestinal-type alkaline phosphatase (Mus musculus, UniProt P24822), sequence (P24822 whole entry): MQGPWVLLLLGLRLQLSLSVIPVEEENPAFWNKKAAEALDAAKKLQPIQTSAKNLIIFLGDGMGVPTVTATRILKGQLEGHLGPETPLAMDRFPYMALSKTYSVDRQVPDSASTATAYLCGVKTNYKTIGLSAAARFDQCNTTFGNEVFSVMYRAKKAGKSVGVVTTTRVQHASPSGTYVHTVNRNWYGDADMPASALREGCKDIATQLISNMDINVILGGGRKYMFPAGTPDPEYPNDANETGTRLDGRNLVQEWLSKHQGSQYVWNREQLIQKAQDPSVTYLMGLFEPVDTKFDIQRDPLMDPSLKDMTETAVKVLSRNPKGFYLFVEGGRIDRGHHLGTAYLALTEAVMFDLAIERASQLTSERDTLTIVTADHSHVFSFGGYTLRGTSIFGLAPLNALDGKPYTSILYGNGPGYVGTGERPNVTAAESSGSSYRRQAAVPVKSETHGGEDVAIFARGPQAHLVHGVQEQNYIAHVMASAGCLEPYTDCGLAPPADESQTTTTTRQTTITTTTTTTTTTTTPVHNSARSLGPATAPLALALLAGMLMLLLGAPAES

Usually IC50 stands for the concentration at which inhibition is half-maximal. What is called EC50 is the concentration needed to bring the measured effect to its halfway point. `CCOCCCNC(=O)CCC(=O)NNc1nc2ccccc2c2nc(-c3ccccc3)nn12`: the concentration for half-maximal inhibition (IC50) is 29.6 µM (active) in test [1] and > 79 µM (inactive) in test [5]. Further, the EC50 in test [2] is 12.6 µM (active); in test [3], 15.2 µM (active); in test [4], 17.7 µM (active).
